Data reported in patent US7138530B2, “Thiophene amidines, compositions thereof, and methods of treating complement-mediated diseases and conditions” (3-Dimensional Pharmaceuticals, Inc., priority 2002, dated 2006).

biological target: T1, activated human C1s (Homo sapiens, UniProt P09871); assay: In vitro inhibition of C1s: Ki determination, C1s-catalyzed hydrolysis of Z-Gly-Arg-S-Bzl detected with DTNB; type: biochemical; details: purified activated human C1s 2.3 nM, Z-Gly-Arg-S-Bzl 45 μM, DTNB 200 μM, pH 7.5, 37° C., absorbance at 405 nm
T1 construct: purchased Calbiochem (La Jolla, Calif.)
T1 sequence (P09871 438-688 limits assumed): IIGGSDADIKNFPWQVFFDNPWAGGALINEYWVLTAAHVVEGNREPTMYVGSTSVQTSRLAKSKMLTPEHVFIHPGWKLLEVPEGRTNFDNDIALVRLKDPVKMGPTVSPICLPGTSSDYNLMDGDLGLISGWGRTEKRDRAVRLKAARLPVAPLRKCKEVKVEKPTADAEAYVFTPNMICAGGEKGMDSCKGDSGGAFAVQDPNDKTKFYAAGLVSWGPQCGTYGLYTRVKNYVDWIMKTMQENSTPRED
T1 sequence (P09871 16-437 partner limits assumed): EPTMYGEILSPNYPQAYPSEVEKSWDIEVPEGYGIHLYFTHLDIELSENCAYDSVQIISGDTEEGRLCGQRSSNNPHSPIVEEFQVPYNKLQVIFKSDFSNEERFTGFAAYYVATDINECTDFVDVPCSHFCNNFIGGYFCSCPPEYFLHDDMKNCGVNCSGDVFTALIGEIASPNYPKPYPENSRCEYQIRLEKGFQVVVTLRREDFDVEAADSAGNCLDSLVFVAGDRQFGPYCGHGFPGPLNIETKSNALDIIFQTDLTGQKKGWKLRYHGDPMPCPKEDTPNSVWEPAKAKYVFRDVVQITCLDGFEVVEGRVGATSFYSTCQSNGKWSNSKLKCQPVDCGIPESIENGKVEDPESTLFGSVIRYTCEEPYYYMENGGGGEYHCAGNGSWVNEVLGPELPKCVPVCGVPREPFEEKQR
Method: Reagents: All buffer salts were obtained from Sigma Chemical Company (St. Louis, Mo.), and were of the highest purity available. DTNB was purchased from Pierce (Rockford, Ill.). Z-Gly-Arg-S-Bzl was purchased from Enzyme Systems Products (Livermore, Calif.). Activated human C1s was purchased from Calbiochem (La Jolla, Calif.).
Test compounds are prepared as a 10 μM solution in DMSO. Dilutions are prepared in DMSO yielding 7 final concentrations encompassing a 700-fold concentration range.
Reactions were initiated by the addition of a 10 μL aliquot of the enzyme, and the absorbance increase at 405 nm is continuously recorded for 15 minutes in a Molecular Devices plate reader. Final DMSO concentration was 4.3%. […] The ratio of the velocity (rate of change in absorbance as a function of time) for a sample containing no test compound is divided by the velocity of a sample containing test compound, and is plotted as a function of test compound concentration. The data are fit to a linear regression, and the value of the slope of the line calculated. The inverse of the slope is the experimentally determined Ki value.

Compound | Ki
CSc1sc(C(=N)NC(=O)OC(C)(C)C)cc1S(=O)(=O)c1cccc(-c2ccc(S(C)(=O)=O)cc2)c1 [Example 57, {Imino-[4-(4′-methanesulfonyl-biphenyl-3-sulfonyl)-5-methylsulfanyl-thiophen-2-yl]-methyl}-carbamic acid tert-butyl ester] | 6 to 23 nM
CSc1sc(C(=N)N)cc1S(=O)(=O)c1cccc(-c2ccsc2)c1 [Example 77, 5-Methylsulfanyl-4-(3-thiophen-3-yl-benzenesulfonyl)-thiophene-2-carboxamidine] | 6 to 23 nM
CSc1sc(C(=N)N)cc1S(=O)(=O)c1cccc(-c2c(C)cc(NC(=N)N)cc2NC(=O)NCCCCCC(=O)O)c1 [Example 259] | 6 to 23 nM
